Experimental data reported in patent US20240390377A1, “COMPOSITION FOR THE PREVENTION OR TREATMENT OF NEURODEGENERATIVE OR MOTOR NEURON DISEASES COMPRISING HALOFUGINONE AS AN ACTIVE INGREDIENT” (CURAMYS CO., LTD., priority 2022, published 2024).

Legend:
C2C12 cells [1] = assay: Real-time qRT-PCR analysis of C2C12 myoblasts (TGF-β1 stimulation, halofuginone treatment); type: cell-based, mouse; settings: 24 hours of 5 ng/ml TGF-β1 stimulation, vs control group (FIG. 2a)
Procedure: (§1) Specifically, C2C12 cells (CRL-1772) were purchased from the American Type Culture Collection (ATCC) and maintained in DMEM medium (Welgene) containing 10% (v/v) fetal bovine serum (FBS; Gibco) and 1% penicillin-streptomycin (P/S; Gibco) at 37° C. under 5% CO2 conditions. The C2C12 cells were seeded in 6-well plates at a density of 3×10^5 cells per well and allowed to adhere for 24 hours. Subsequently, the medium was replaced with serum-free medium after 24 hours, followed by stimulation with 5 ng/ml rhTGF-β1 (recombinant human TGF-β1; R&D Systems). After stimulation, the cells were treated with various concentrations (0 [control], or 1, 2.5, 5 [low dose], 10 [high dose], 20, 50, 100 ng/ml) of halofuginone (Sigma) in serum-free medium for 24 hours.
Specifically, total RNA was isolated from C2C12 cells in Example 1, fibroblasts in Example 5, and the lumbar spinal cord of mice in Example 6 using the FavorPrep™ Tri-RNA Reagent (Favorgen). The lumbar spinal cord was isolated from the mouse in Example 6 and stored frozen at −80° C. until the experiment. The concentration of total RNA was measured at 260 nm absorbance using a spectrophotometer (NanoDrop Spectrophotometer ND-2000, Thermo Scientific). cDNA was synthesized from 1 μg of total RNA using the ReverTra Ace-α™ (Toyobo) according to the manufacturers protocol. Quantitative RT-PCR was performed using the SYBR Green ExcelTaq™ 2× Fast Q-PCR Master Mix (TQ1200, Smobio) on a thermocycler (CFX Connect Real-Time PCR Detection System, BIO-RAD) with the primers listed in Table 3 below. Fluorescence data were analyzed with Bio-Rad CFX Manager 3.1 software, and control versus relative mRNA expression was calculated by the 2AT) method. Experiments were performed four times on all samples. All primers were designed using Primer3 online software, and GAPDH was used as a control group.
(§2) Specifically, after treating C2C12 cells with TGF-β1 for 24 hours as in Example 1, real-time qRT-PCR was performed in the same manner as in Example 11 to confirm TGF-β1, 2 and 3, α-SMA and MyoD mRNA expression (FIG. 2a), and Western blot analysis was performed in the same manner as in Example 12 to confirm autocrine expression of TGF-β1 and MyoD protein and α-SMA (FIG. 2b).
Specifically, as in Example 1, C2C12 cells were stimulated with TGF-β1 for 24 hours, and then halofuginone was treated for 24 hours, and real-time qRT-PCR was performed in the same manner as in Example 11 to confirm TGF-β1, α-SMA, MyoD, and collagen I (Col-I) mRNA expression (FIG. 4a). In addition, Western blot analysis was performed in the same manner as in Example 12 to confirm TGF-β1, α-SMA, MyoD, and collagen I protein expression (FIG. 4b). In addition, immunocytochemical analysis was performed in the same manner as in Example 3 to confirm α-SMA and MyoD expression (FIG. 4c).

C2C12 cells [2] = assay: Western blot analysis of C2C12 myoblasts (TGF-β1 stimulation, halofuginone treatment); type: cell-based, mouse; settings: 24 hours of 5 ng/ml TGF-β1 stimulation (FIG. 2b)
Procedure: as §1
Specifically, the lumbar spinal cord or knee joint of the mouse of Example 6 was separated and immediately frozen at −80° C. Each lumbar spinal cord or knee joint was then homogenized and chemically treated to obtain cells. The chemically treated cells, the C2C12 cells of Example 1 or the fibroblasts of Example 5 were dissolved in a RIPA buffer (Thermo, MA, USA) with a protease inhibitor and a phosphatase inhibitor (Roche, IN, USA) and incubated on ice for 30 minutes. After centrifugation of the lysate at 13,000 rpm at 4° C. for 20 min, insoluble substances were removed. Protein concentrations were measured by BCA analysis (Pierce Biotechnology). Equal volumes of cell lysate were loaded onto SDS-PAGE gels for electrophoresis, and transferred onto nitrocellulose membranes (Amersham Protran 0.2 um NC, Amersham Pharmacia Biotech, Piscataway, NJ, USA). The membranes were then blocked with 5% (w/v) skimmilk in 1×TBST for 1 h at room temperature. After blocking, anti-RB-actin antibody (1:5000; Santa Cruz, cat #sc47778), anti-Smad2 antibody (1:1000; Cell Signaling, cat #5339), anti-p-Smad2 antibody (1:1000; Cell Signaling, cat #3108), anti-TGF-β1 antibody (1:1000; Santa Cruz, cat #sc130348), anti-α-SMA antibody (1:10000; abcam cat #ab7817), anti-MyoD antibody (1:1000; cat #sc377460), anti-collagen|antibody (1:1000; abcam cat #ab21286), anti-cleaved caspase-3 antibody (1:1000; Cell Signaling, cat #9661), anti-bax antibody (1:500; Santa Cruz, cat #sc493), anti-bcl2 antibody (1:1000; Novus Biologics, cat #NB100-56098), anti-ChAT antibody (1:1000; Millipore, cat #AB144) were treated and incubated overnight at 4° C. Subsequently, membranes were washed several times with 1×TBST and incubated with horseradish peroxidase-conjugated secondary antibodies (anti-mouse, rabbit or goat, 1:5000; GE Healthcare) in blocking buffer for 1 h at room temperature (RT). The membranes were then washed, briefly incubated with the SuperSignal West Pico Plus Chemical Substructure (Pierce Biotechnology) according to the manufacturer's procedure, and quantified with an image analyzer (Amersham Pharmacia Biotech, Piscataway, NJ, USA). β-actin was used as an internal control group. The concentration measurement of protein intensity was quantified using Image J (National Institutes of Health).
as §2
Specifically, C2C12 cells were treated with halofuginone after TGF-β1 stimulation or no stimulation in the same manner as described in Example 2, and cell viability analysis was performed through CCK-8 analysis (FIGS. 3a and 3b), and Western blot analysis was performed in the same manner as described in Example 12 to confirm autocrine expression of p-Smad2, Smad2, TGF-β1, MyoD, collagen I protein and α-SMA (FIG. 3c). […]

TGF-β1: recombinant human TGF-β1 (R&D Systems) used to stimulate C2C12 myoblasts
significantly increased: mRNA expression of α-SMA (C2C12 cells [1]) | mRNA level of TGF-β1 (C2C12 cells [1]) | mRNA level of TGF-β2 (C2C12 cells [1]) | mRNA level of TGF-β3 (C2C12 cells [1]) | TGF-β1 protein expression (C2C12 cells [2]) | α-SMA protein expression (C2C12 cells [2])
significantly decreased: mRNA level of MyoD (C2C12 cells [1]) | protein expression of MyoD (C2C12 cells [2])
